Test results as given in US11974991B1, “Adenosine receptor activity of methyl/ethyl 3-(substituted benzoyl)-6,8-dimethylindolizine-2-substituted-1-carboxylates” (KING FAISAL UNIVERSITY, priority 2023, dated 2024).
Where two headings read alike, the source gives them in different places.

Key:
[1] = target: human A1R (Homo sapiens (Human), UniProt P30542); test: Displacement of specific [3H]-CCPA binding at human A1R expressed in CHO cells; conditions: for Ki: [3H]-CCPA displacement, CHO cells, means ± SE, read-out: hA1R (Ki nM)
Excerpt: (§1) Table 1 below reports the affinity and antagonist values of compounds KNV1-KNV13. In particular, the binding affinity is expressed in Ki and the antagonistic activity in IC50.

[2] = target: human A2AR (Homo sapiens (Human), UniProt P29274); test: Displacement of specific [3H]-NECA binding at human A2AR expressed in CHO cells; conditions: for Ki: [3H]-NECA displacement, CHO cells, means ± SE, read-out: hA2AR (Ki nM)
Excerpt: as §1

[3] = target: hA2BR (Homo sapiens (Human), UniProt P29275); test: Inhibition of NECA-stimulated adenylyl cyclase activity / cAMP accumulation (GloSensor cAMP assay) in CHO cells expressing hA2BR; assay type: cell-based; conditions: for IC50: inhibiting NECA-stimulated adenylyl cyclase activity, CHO cells, means ± SE
Method: (§2) The activity of the present compounds was evaluated using the GloSensor™ cAMP assay, which is a new non-radioactive method offering a simple approach to monitor GPCR activity through changes in the intracellular cAMP concentration. This assay uses a mutant form of Photinus pyralis luciferase into which a cAMP-binding protein moiety has been inserted. The binding with cAMP triggers a biosensor conformational change that leads to an increase of light output allowing to evaluate the activity of ligands at the receptor under study. Following pre-equilibration with a substrate, cells stably expressing both the receptor of interest and the biosensor can be used to evaluate GPCR function enabling easy kinetic measurements of cAMP accumulation or turnover in living cells.
The antagonist profile of the compounds on A2BAR was evaluated by assessing their ability to counteract the agonist NECA-induced increase of cAMP accumulation. After 2 hrs of equilibration in reaction medium cells were incubated in 384 well plate (10 min at room temperature) with 3 μl of different antagonist concentrations and then treated with 3 μl of a fixed dose of NECA. After further 10 minutes of incubation various luminescence reads were performed at different incubation times.

[4] = target: human A3R (Homo sapiens (Human), UniProt P0DMS8); test: Displacement of specific [3H]-HEMADO binding at human A3R expressed in CHO cells
Excerpt: as §1

[5] = target: hA3R (Homo sapiens (Human), UniProt P0DMS8); test: Counteracting NECA-induced decrease of cAMP accumulation (GloSensor cAMP assay) in CHO cells expressing hA3R; assay type: cell-based
Method: as §2
The antagonist profile of the compounds on A3AR was studied by assessing their ability to counteract the NECA-induced decrease of cAMP accumulation. After 2 hrs of equilibration in reaction medium the cells were incubated in a 384 well plate (10 min at room temperature) with 3 μl of different antagonist concentrations and then treated with 3 μl of a fixed dose of agonist. 1 μl of Forskolin 500 μM, final concentration 10 μM, were added 10 minutes after agonist and various luminescence reads were performed at different incubation times.

[6] = [3H]-HEMADO displacement, CHO cells, means ± SE, read-out: hA3R (Ki nM)
[7] = counteracting NECA-induced decrease of cAMP accumulation, CHO cells expressing hA3R, means ± SE, read-out: hA2AR (IC50 nM) [footnote e: hA3R]

Sequence of hA3R (P0DMS8 whole entry): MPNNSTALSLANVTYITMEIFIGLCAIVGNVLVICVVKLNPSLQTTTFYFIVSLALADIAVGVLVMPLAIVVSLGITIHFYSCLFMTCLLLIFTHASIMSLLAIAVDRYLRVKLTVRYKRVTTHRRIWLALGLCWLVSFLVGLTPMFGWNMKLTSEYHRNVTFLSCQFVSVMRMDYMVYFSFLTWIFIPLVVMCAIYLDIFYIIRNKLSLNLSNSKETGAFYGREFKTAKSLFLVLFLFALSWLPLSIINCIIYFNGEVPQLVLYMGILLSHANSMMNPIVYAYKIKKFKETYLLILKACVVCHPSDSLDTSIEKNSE
Sequence of human A3R (P0DMS8 whole entry): as above
Sequence of human A2AR (P29274 whole entry): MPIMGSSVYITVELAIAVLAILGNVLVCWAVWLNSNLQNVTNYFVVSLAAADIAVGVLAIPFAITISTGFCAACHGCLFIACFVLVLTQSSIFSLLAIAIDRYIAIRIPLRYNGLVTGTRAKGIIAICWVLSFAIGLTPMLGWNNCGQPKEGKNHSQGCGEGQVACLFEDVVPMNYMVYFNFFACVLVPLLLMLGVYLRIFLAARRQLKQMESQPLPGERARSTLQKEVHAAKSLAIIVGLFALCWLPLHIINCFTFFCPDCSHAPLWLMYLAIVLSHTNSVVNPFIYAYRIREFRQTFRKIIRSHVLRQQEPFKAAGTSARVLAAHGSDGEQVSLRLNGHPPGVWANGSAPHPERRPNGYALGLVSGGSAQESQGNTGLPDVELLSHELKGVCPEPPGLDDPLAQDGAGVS
Sequence of hA2BR (P29275 whole entry): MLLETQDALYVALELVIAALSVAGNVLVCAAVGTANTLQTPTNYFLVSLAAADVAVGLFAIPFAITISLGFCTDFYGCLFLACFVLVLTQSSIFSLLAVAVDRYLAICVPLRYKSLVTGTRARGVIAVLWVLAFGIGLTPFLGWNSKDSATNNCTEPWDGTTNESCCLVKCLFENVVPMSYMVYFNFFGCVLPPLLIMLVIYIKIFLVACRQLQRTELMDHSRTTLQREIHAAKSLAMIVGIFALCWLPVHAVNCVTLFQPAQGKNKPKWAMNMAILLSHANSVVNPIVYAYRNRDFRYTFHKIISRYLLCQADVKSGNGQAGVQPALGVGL
Sequence of human A1R (P30542 whole entry): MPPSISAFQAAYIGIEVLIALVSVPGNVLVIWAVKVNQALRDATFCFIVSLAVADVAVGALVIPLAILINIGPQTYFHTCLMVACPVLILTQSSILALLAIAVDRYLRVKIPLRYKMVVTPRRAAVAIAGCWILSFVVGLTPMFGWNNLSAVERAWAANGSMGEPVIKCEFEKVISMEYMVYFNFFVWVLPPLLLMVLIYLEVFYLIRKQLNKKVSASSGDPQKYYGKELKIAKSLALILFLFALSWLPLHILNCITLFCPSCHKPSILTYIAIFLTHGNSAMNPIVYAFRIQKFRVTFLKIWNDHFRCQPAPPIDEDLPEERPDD

| Compound | Ki [1] [nM] | Ki [2] [nM] | IC50 [3] [nM] | Ki [4, 6] [nM] | IC50 [5, 7] [nM] | activity in the other subtypes (A1) [1] | activity in the other subtypes (A2A) [2] | activity in the other subtypes (A2B) [3] | Ki ([4]; unit inferred, read-out: Ki towards A3AR) [nM] | IC50 ([5]; unit inferred, read-out: IC50, antagonistic activity on A3AR) [nM] |
| --- | --- | --- | --- | --- | --- | --- | --- | --- | --- | --- |
| COC(=O)c1c(C(=O)OC)c2c(C)cc(C)cn2c1C(=O)c1ccc(Br)cc1 [KNV4, Dimethyl 3-(4-bromobenzoyl)-6,8-dimethylindolizine-1,2-dicarboxylate] | 6980 ± 330 | 5540 ± 998 | > 30000 | 2160 ± 468 | 9580 ± 1080 |  |  |  |  |  |
| COC(=O)c1c(C(=O)OC)c2c(C)cc(C)cn2c1C(=O)c1ccc(Cl)cc1 [KNV10, Dimethyl 3-(4-chlorobenzoyl)-6,8-dimethylindolizine-1,2-dicarboxylate] | 5610 ± 1080 | 6880 ± 705 | > 30000 | 924 ± 127 | 4210 ± 521 |  |  |  |  |  |
| Ethyl 3-(4-bromobenzoyl)-6,8-dimethylindolizine-1-carboxylate [KNV3] | > 30000 | > 30000 | > 30000 | > 30000 | > 30000 |  |  |  |  |  |
| COC(=O)c1c(C(=O)OC)c2c(C)cc(C)cn2c1C(=O)c1ccc(C)cc1 [KNV8, Dimethyl 6,8-dimethyl-3-(4-methylbenzoyl)indolizine-1,2-dicarboxylate] | 2390 ± 171 | 1609 ± 13 | > 30000 | 3090 ± 6 | 11000 ± 2050 |  |  |  |  |  |
| CCOC(=O)c1cc(C(=O)c2ccc(C#N)cc2)n2cc(C)cc(C)c12 [KNV11, Ethyl 3-(4-cyanobenzoyl)-6,8-dimethylindolizine-1-carboxylate] | > 30000 | > 30000 | > 30000 | 8540 ± 1500 | 25900 ± 4200 |  |  |  |  |  |
| CCOC(=O)c1cc(C(=O)c2ccc(OC)cc2)n2cc(C)cc(C)c12 [KNV9, Ethyl 3-(4-methoxybenzoyl)-6,8-dimethylindolizine-1-carboxylate] | > 30000 | > 30000 | > 30000 | 305 ± 57 | 865 ± 105 |  |  |  |  |  |
| CCOC(=O)c1cc(C(=O)c2ccc(C)cc2)n2cc(C)cc(C)c12 [KNV7, Ethyl 6,8-dimethyl-3-(4-methylbenzoyl)indolizine-1-carboxylate] | > 30000 | 4970 ± 508 | > 30000 | 1070 ± 157 | 4210 ± 1150 |  |  |  |  |  |
| CCOC(=O)c1cc(C(=O)c2ccc(Cl)cc2)n2cc(C)cc(C)c12 [KNV1, Ethyl 3-(4-chlorobenzoyl)-6,8-dimethylindolizine-1-carboxylate] | > 30000 | > 30000 | > 30000 | 591 ± 112 | 1510 ± 351 |  |  |  |  |  |
| COC(=O)c1c(C(=O)OC)c2c(C)cc(C)cn2c1C(=O)c1ccc(C#N)cc1 [KNV12, Dimethyl 3-(4-cyanobenzoyl)-6,8-dimethylindolizine-1,2-dicarboxylate] | > 30000 | > 30000 | > 30000 | 12100 ± 1700 | 41100 ± 9220 |  |  |  |  |  |
| COC(=O)c1c(C(=O)OC)c2c(C)cc(C)cn2c1C(=O)c1ccc(OC)cc1 [KNV2, Dimethyl 3-(4-methoxybenzoyl)-6,8-dimethylindolizine-1,2-dicarboxylate] | 1330 ± 217 | 4820 ± 243 | > 30000 | 1910 ± 45 | 7900 ± 1080 |  |  |  |  |  |
| CCOC(=O)c1cc(C(=O)c2cc(C(F)(F)F)cc(C(F)(F)F)c2)n2cc(C)cc(C)c12 [KNV13, Ethyl 3-(3,5-bis(trifluoromethyl)benzoyl)-6,8-dimethylindolizine-1-carboxylate] | > 30000 | > 30000 | > 30000 | 7140 ± 130 | 28000 ± 5220 |  |  |  |  |  |
| Ethyl 3-(4-fluorobenzoyl)-6,8-dimethylindolizine-1-carboxylate [KNV5] | > 30000 | > 30000 | > 30000 | 213 ± 16 | 196 ± 55 | not active | not active | not active | 213 | 196 |
| CCOC(=O)c1cc(C(=O)c2ccccc2[N+](=O)[O-])n2cc(C)cc(C)c12 [KNV6, Ethyl 6,8-dimethyl-3-(2-nitrobenzoyl)indolizine-1-carboxylate] | > 30000 | 7970 ± 1660 | > 30000 | 930 ± 159 | 3420 ± 879 |  |  |  |  |  |
